Structures can show the parent of a compound that is named as a salt. Where two headings read alike, the source gives them in different places. Square brackets hold non-standard residues; d marks the D form. Peptide text beside a SMILES is read from it. * marks the point of attachment. dChg = N[C@@H](C(=O)O)C1CCCCC1; Agmatine = N=C(N)NCCCCN*; Aze = O=C(O)[C@@H]1CCN1
How the values were obtained:
Assay type in all cases: biochemical
[1] = biological target: MASP-2 (CCP1-CCP2-SP) (Homo sapiens (Human), UniProt O00187); assay: biochemical
[2] = biological target: mMASP-2 (Mus musculus (Mouse), UniProt Q91WP0); assay: Enzymatic inhibition of mMASP-2
[3] = biological target: human α-thrombin (Homo sapiens (Human), UniProt P00734); assay: Enzymatic assay for thrombin (Boc-VPR-AMC substrate)
[4] = selectivity for MASP-2 inhibition versus thrombin
[5] = MASP-2 inhibition versus thrombin

MASP-2 (CCP1-CCP2-SP), sequence (O00187 445-686): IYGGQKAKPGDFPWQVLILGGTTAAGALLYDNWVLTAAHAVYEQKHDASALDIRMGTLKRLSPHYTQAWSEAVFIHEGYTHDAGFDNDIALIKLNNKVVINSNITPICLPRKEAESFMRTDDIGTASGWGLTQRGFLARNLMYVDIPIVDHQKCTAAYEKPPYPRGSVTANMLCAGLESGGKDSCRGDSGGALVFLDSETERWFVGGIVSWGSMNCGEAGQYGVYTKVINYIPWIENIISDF
mMASP-2, sequence (Q91WP0 20-685): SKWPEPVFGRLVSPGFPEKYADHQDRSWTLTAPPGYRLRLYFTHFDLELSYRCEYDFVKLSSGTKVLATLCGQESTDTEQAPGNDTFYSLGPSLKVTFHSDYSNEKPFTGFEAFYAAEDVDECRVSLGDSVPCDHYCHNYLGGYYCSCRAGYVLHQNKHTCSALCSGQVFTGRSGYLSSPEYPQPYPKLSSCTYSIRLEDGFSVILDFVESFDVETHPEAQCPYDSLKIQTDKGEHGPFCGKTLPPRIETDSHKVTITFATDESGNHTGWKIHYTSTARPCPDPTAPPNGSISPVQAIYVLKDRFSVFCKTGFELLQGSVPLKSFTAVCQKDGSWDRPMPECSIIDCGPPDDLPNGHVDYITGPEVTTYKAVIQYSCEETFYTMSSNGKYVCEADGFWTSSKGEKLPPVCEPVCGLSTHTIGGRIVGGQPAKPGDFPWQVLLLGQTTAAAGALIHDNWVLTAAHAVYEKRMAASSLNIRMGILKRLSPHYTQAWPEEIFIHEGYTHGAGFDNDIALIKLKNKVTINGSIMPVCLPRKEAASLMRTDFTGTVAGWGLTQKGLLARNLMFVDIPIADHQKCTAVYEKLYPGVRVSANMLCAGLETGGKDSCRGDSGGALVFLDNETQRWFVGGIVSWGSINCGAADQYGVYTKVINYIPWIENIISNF

Row | SMILES | Ki ([1]; read-out: MASP-2 Ki) | MASP-2 vs. thrombin selectivity [1, 4] | Ki ([2]; read-out: mMASP-2 Ki) | Ki ([3]; Thrombin Ki (μM)) | Ki ([3]; read-out: Thrombin Ki) | MASP-2 vs. thrombin selectivity [1, 5] | Ki [2] | Ki [1]
1 | Cc1nc(N)ccc1CNC(=O)[C@H](C)NC(=O)[C@H]1C[C@@H](Cc2ccccc2)CN1 [compound 1283, (2R,4R)—N—((S)-1-(((6-Amino-2-methylpyridin-3-yl)methyl)amino)-1-oxopropan-2-yl)-4-benzylpyrrolidine-2-carboxamide] | < 500 nM | *** (≥25 to <100-fold) | 500 to 2500 nM | 2.5 to 10 µM | – | – | – | –
2 | Cc1cc(Cl)cc(CNC(=O)[C@H](C)NC(=O)[C@H]2C[C@H](Cc3ccccc3-c3ccc(Cl)s3)CN2)c1O [compound 1408, (2R,4S)—N—((S)-1-((5-Chloro-2-hydroxy-3-methylbenzyl)amino)-1-oxopropan-2-yl)-4-(2-(5-chlorothiophen-2-yl)benzyl)pyrrolidine-2-carboxamide Hydrochloride] | < 500 nM | ** (≥5.0 to <25-fold) | 2500 to 10000 nM | 2.5 to 10 µM | – | – | – | –
3 | Cc1nc(N)ccc1CNC(=O)[C@H](C)NC(=O)[C@H]1C[C@H](c2ccccc2)CN1 [compound 1265, (2R,4R)—N—((S)-1-(((6-Amino-2-methylpyridin-3-yl)methyl)amino)-1-oxopropan-2-yl)-4-phenylpyrrolidine-2-carboxamide] | < 500 nM | **** (≥100-fold) | 2500 to 10000 nM | – | > 25 µM | – | – | –
4 | N=C(N)NCCCCNC(=O)[C@@H]1CCN1C(=O)[C@H](N)C1CCCCC1 [compound 1006, (S)-1-((R)-2-Amino-2-cyclohexylacetyl)-N-(4-guanidinobutyl)azetidine-2-carboxamide Dihydrochloride] (H-[dChg]-[Aze]-Agmatine) | < 500 nM | – | < 500 nM | – | < 0.5 µM | −− (less than 1.0-fold) | – | –
5 | C[C@H](NC(=O)[C@H]1C[C@H](c2ccccc2)CN1)C(=O)NCc1ccc(C(=N)N)nc1 [compound 1272, (2R,4R)—N—((S)-1-(((6-Carbamimidoylpyridin-3-yl)methyl)amino)-1-oxopropan-2-yl)-4-phenylpyrrolidine-2-carboxamide] | < 500 nM | *** (≥25 to <100-fold) | < 500 nM | 0.5 to 2.5 µM | – | – | – | –
6 | CCc1cccc([C@H]2CN[C@@H](C(=O)N[C@@H](C)C(=O)NCc3ccc(N)nc3C)C2)c1 [compound 1303, (2R,4S)—N—((S)-1-(((6-Amino-2-methylpyridin-3-yl)methyl)amino)-1-oxopropan-2-yl)-4-(3-ethylphenyl)pyrrolidine-2-carboxamide Dihydrochloride] | < 500 nM | *** (≥25 to <100-fold) | 2500 to 10000 nM | – | > 25 µM | – | – | –
7 | C[C@H](NC(=O)[C@H]1C[C@@H](c2cccc(CN)c2)CN1)C(=O)NCc1ccc(C(=N)N)cc1 [compound 1277, (2R,4S)-4-(3-(Aminomethyl)phenyl)-N-((S)-1-((4-carbamimidoylbenzyl)amino)-1-oxopropan-2-yl)pyrrolidine-2-carboxamide] | < 500 nM | ** (≥5.0 to <25-fold) | < 500 nM | – | < 0.5 µM | – | – | –
8 | C[C@H](NC(=O)[C@H]1C[C@H](c2ccccc2)CN1)C(=O)NCc1ccc(C(=N)N)c(F)c1 [compound 1300, (2R,4R)—N—((S)-1-((4-Carbamimidoyl-3-fluorobenzyl)amino)-1-oxopropan-2-yl)-4-phenylpyrrolidine-2-carboxamide Di-trifluoroacetate salt] | < 500 nM | *** (≥25 to <100-fold) | < 500 nM | 2.5 to 10 µM | – | – | – | –
9 | Cc1nc(N)ccc1CNC(=O)[C@H](C)NC(=O)[C@@H]1C[C@H](Cc2ccccc2)CCN1 [compound 1354, (2S,4R)—N—((S)-1-(((6-Amino-2-methylpyridin-3-yl)methyl)amino)-1-oxopropan-2-yl)-4-benzylpiperidine-2-carboxamide Dihydrochloride] | < 500 nM | *** (≥25 to <100-fold) | 500 to 2500 nM | 2.5 to 10 µM | – | – | – | –
10 | C[C@H](NC(=O)[C@@H](CCc1ccccc1)NCCc1ccc(O)cc1)C(=O)NCc1ccc(C(=N)N)cc1 [compound 1327, (R)—N—((S)-1-((4-Carbamimidoylbenzyl)amino)-1-oxopropan-2-yl)-2-((4-hydroxyphenethyl)amino)-4-phenylbutanamide dihydrochloride] | < 500 nM | *** (≥25 to <100-fold) | < 500 nM | – | < 0.5 µM | – | – | –
11 | C[C@H](NC(=O)[C@H]1C[C@H](c2ccccc2)CN1)C(=O)NCc1cc2ccncc2[nH]1 [compound 1495, (2R,4R)—N—((S)-1-(((1H-Pyrrolo[2,3-c]pyridin-2-yl)methyl)amino)-1-oxopropan-2-yl)-4-phenylpyrrolidine-2-carboxamide Di-trifluoroacetate salt] | 2500 to 10000 nM | ** (≥5.0 to <25-fold) | – | – | > 25 µM | – | 500 to 2500 nM | –
12 | C[C@H](NC(=O)[C@H]1C[C@H](c2ccccc2)CN1)C(=O)NCc1ccc2[nH]cc(Cl)c2c1 [compound 1362, (2R,4R)—N—((S)-1-(((3-Chloro-1H-indol-5-yl)methyl)amino)-1-oxopropan-2-yl)-4-phenylpyrrolidine-2-carboxamide] | – | * (≥1.0 to <5.0-fold) | 500 to 2500 nM | 0.5 to 2.5 µM | – | – | – | 500 to 2500 nM
13 | Cc1nc(N)ccc1CNC(=O)[C@H](C)N(C)C(=O)[C@H]1C[C@H](Cc2ccc(Br)cc2)CN1 [compound 1497, (2R,4S)—N—((S)-1-(((6-Amino-2-methylpyridin-3-yl)methyl)amino)-1-oxopropan-2-yl)-4-(4-bromobenzyl)-N-methylpyrrolidine-2-carboxamide Di-trifluoroacetate salt] | < 500 nM | ** (≥5.0 to <25-fold) | 2500 to 10000 nM | 2.5 to 10 µM | – | – | – | –
14 | CCOC(=O)CCCN1CC[C@H](c2ccccc2)C[C@@H]1C(=O)N[C@@H](C)C(=O)NCc1ccc(N)nc1C [compound 1440, Ethyl 4-((2R,4S)-2-(((S)-1-(((6-amino-2-methylpyridin-3-yl)methyl)amino)-1-oxopropan-2-yl)carbamoyl)-4-phenylpiperidin-1-yl)butanoate] | < 500 nM | – | 2500 to 10000 nM | – | > 25 µM | – | – | –
15 | Cc1nc(N)ccc1CNC(=O)[C@H](C)NC(=O)[C@H]1C[C@H](Cc2ccc(-c3ccccc3)cc2)CN1 [compound 1351, (2R,4S)-4-([1,1′-Biphenyl]-4-ylmethyl)-N-((S)-1-(((6-amino-2-methylpyridin-3-yl)methyl)amino)-1-oxopropan-2-yl)pyrrolidine-2-carboxamide Dihydrochloride] | < 500 nM | **** (≥100-fold) | < 500 nM | – | > 25 µM | – | – | –
16 | C[C@H](NC(=O)[C@H]1C[C@H](Cc2ccccc2Br)CN1)C(=O)NCc1cnc2c(c1)c(Cl)cn2C [compound 1482, (2R,4S)-4-(2-bromobenzyl)-N-((S)-1-(((3-chloro-1-methyl-1H-pyrrolo[2,3-b]pyridin-5-yl)methyl)amino)-1-oxopropan-2-yl)pyrrolidine-2-carboxamide Hydrochloride] | < 500 nM | *** (≥25 to <100-fold) | < 500 nM | 0.5 to 2.5 µM | – | – | – | –
17 | C[C@H](NC(=O)[C@H](N)CCc1ccccc1)C(=O)NCc1cnc(N)c(Cl)c1 [compound 1275, (R)-2-Amino-N—((S)-1-(((6-amino-5-chloropyridin-3-yl)methyl)amino)-1-oxopropan-2-yl)-4-phenylbutanamide] | – | *** (≥25 to <100-fold) | > 25000 nM | – | > 25 µM | – | – | 500 to 2500 nM
18 | C[C@H](NC(=O)[C@H]1C[C@H](c2ccccc2)CN1)C(=O)NCc1cc2cnccc2[nH]1 [compound 1463, (2R,4R)—N—((S)-1-(((1H-Pyrrolo[3,2-c]pyridin-2-yl)methyl)amino)-1-oxopropan-2-yl)-4-phenylpyrrolidine-2-carboxamide Di-trifluoroacetate salt] | < 500 nM | – | < 500 nM | – | > 25 µM | – | – | –
19 | Cc1cc(Cl)cc(CNC(=O)[C@H](C)NC(=O)[C@H]2CN(c3cccc4ccccc34)CCN2)c1O [compound 1317, (R)—N—((S)-1-((5-Chloro-2-hydroxy-3-methylbenzyl)amino)-1-oxopropan-2-yI)-4-(naphthalen-1-yl)piperazine-2-carboxamide Hydrochloride] | < 500 nM | – | 500 to 2500 nM | – | > 25 µM | – | – | –
20 | C[C@H](NC(=O)[C@H]1C[C@H](c2ccccc2)CN1)C(=O)NCc1cc(Cl)cc(C#N)c1 [compound 1386, (2R,4R)—N—((S)-1-((3-Chloro-5-cyanobenzyl)amino)-1-oxopropan-2-yl)-4-phenylpyrrolidine-2-carboxamide Trifluoroacetate salt] | – | – | > 25000 nM | – | > 25 µM | – | – | 10000 to 25000 nM
21 | C[C@H](NC(=O)[C@@H](CCc1ccccc1)NC1CCC1)C(=O)NCc1ccc(C(=N)N)cc1 [compound 1108] | < 500 nM | – | < 500 nM | – | < 0.5 µM | * (1.0 to 5.0-fold) | – | –
22 | Cc1nc(N)ccc1CNC(=O)[C@H](C)NC(=O)[C@H]1C[C@@H](Oc2ccccc2)CN1 [compound 1310, (2R,4R)—N—((S)-1-(((6-Amino-2-methylpyridin-3-yl)methyl)amino)-1-oxopropan-2-yl)-4-phenoxypyrrolidine-2-carboxamide Dihydrochloride] | – | *** (≥25 to <100-fold) | > 25000 nM | – | > 25 µM | – | – | 500 to 2500 nM
23 | COc1cccc(CC[C@@H](N)C(=O)N[C@@H](C)C(=O)NCc2ccc(C(=N)N)cc2)c1 [compound 1075] | < 500 nM | – | < 500 nM | – | < 0.5 µM | ** (5.0 to 25-fold) | – | –

From patent US11584714B2 (priority 2018, dated 2023)
